In patent US10294202B2, “Pyrrolidinones as herbicides” (FMC Corporation, priority 2013, dated 2019):

Tested on: deadnettle
Experiment: Test C postemergence herbicide test
Assay type: in vivo, Lamium amplexicaule
Description: At the same time, plants selected from these crop and weed species and also barley (winter barley, Hordeum vulgare), […]), chickweed (common chickweed, Stellaria media), deadnettle (henbit deadnettle, Lamium amplexicaule), and canarygrass (littleseed canarygrass, Phalaris minor) were planted in pots containing Redi-Earth® planting medium (Scotts Company, 14111 Scottslawn Road, Marysville, Ohio 43041) comprising spaghnum peat moss, vermiculite, wetting agent and starter nutrients and treated with postemergence applications of test chemicals formulated in the same manner. Plants ranged in height from 2 to 18 cm (1- to 4-leaf stage) for postemergence treatments. Treated plants and controls were maintained in a greenhouse for 13 to 15 days, after which time all species were compared to controls and visually evaluated. Plant response ratings, summarized in Table C, are based on a scale of 0 to 100 where 0 is no effect and 100 is complete control. A dash (-) response means no test result.

Measured: Plant response rating, Deadnettle

O=C1NCC(c2ccc(F)c(F)c2)C1C(=O)Nc1cccc(F)c1F (stereo not shown) [Compound 17, N-(2,3-difluorophenyl)-4-(3,4-difluorophenyl)-2-oxo-3-pyrrolidinecarboxamide]
0: 31 g ai/ha, scale 0 (no effect) to 100 (complete control) | 62 g ai/ha, scale 0 to 100 (0 no effect, 100 complete control) | 125 g ai/ha, scale 0 to 100 (0 no effect, 100 complete control) | 250 g ai/ha, scale 0 to 100 (0 no effect, 100 complete control)
